Assay results as given in patent publication US12528768B2, “Crystalline form of a 7H-benzo[7]annulene-2-carboxylic acid derivative” (Sanofi, priority 2019, dated 2026).

How the values were obtained:
[1] = Physical stability of the solid form (exposure to heat, moisture, nitrogen or ambient conditions, followed by XRPD); type: physicochemical; conditions: for stability of the solid form (in words): overall judgement; for result of exposure to heat and/or moisture: heat (for example 40° C.) and/or moisture
Experimental: II. X-Ray Powder Diffraction (XRPD) Analyses were carried out at room temperature on a Brucker D4 Endeavor instrument using the Bragg-Brentano parafocusing geometry. A sealed copper anode X-ray tube was used (λ, CuKα average=1.54178 Å). A LynxEye linear detector completed the setup. A counting time of few seconds per step in an angular range of from few 2-Theta degrees to several dozen 2-Theta degrees with a 0.016° step size in 20 was used for each sample analysis. For each experiment, the powder was deposited onto the surface of a sample holder.

[2] = Water sorption isotherms using Dynamic Vapor Sorption (DVS); type: physicochemical; conditions: for Change in Mass / Change in Mass (water uptake): DVS sorption step, 25° C.; for Change in Mass (water uptake): target RH 95%; for weight gain determined by DVS: about 25° C. (±0.2° C.)
Experimental: III. Water Sorption Isotherms Using Dynamic Vapor Sorption (DVS) Experiments were performed on DVS automated gravimetric vapor sorption analyzer (Surface Measurement Systems Ltd., London, UK). Uptake and loss of water by the sample were gravimetrically measured with an ultra-microbalance with a mass resolution of ±0.1 μg. A controlled relative humidity was generated by mixing different proportions of dry and water saturated carrier gas streams. The temperature was maintained constant at 25.0±0.2° C., by enclosing the entire system in a temperature controlled incubator. A sample size between 5 and 20 mg was used. Prior to being exposed to any water vapor the sample was dried at 0% relative humidity (RH) to remove most surface water present and establish a dry, baseline mass. Next, the sample was exposed to an increasing relative humidity raised by steps of 5% RH, from 0 to 95% RH.

| stability of the solid form (in words) [1] | Change in Mass ([2]; target RH 0%) [%] | Change in Mass ([2]; target RH 10%) [%] | Change in Mass ([2]; target RH 20%) [%] | Change in Mass ([2]; target RH 30%) [%] | Change in Mass ([2]; target RH 40%) [%] | Change in Mass ([2]; target RH 50%) [%] | Change in Mass ([2]; target RH 60%) [%] | Change in Mass ([2]; target RH 70%) [%] | Change in Mass ([2]; target RH 80%) [%] | Change in Mass ([2]; target RH 90%) [%] | SMILES | also measured |
| --- | --- | --- | --- | --- | --- | --- | --- | --- | --- | --- | --- | --- |
| physically unstable | – | – | – | – | – | – | – | – | – | – | O=C(O)c1ccc2c(c1)CCCC(c1ccc(Cl)cc1Cl)=C2c1ccc(O[C@H]2CCN(CCCF)C2)cc1 [1,4-dioxane solvate] | conversion at room temperature ([1]; room temperature, one week): converts at room temperature to an unknown poorly crystallized solid form |
| – | – | – | – | – | – | – | – | – | – | – | O=C(O)c1ccc2c(c1)CCCC(c1ccc(Cl)cc1Cl)=C2c1ccc(O[C@H]2CCN(CCCF)C2)cc1 [2-propanol solvate] | transformation upon heating ([1]; upon heating): transforms into anhydrate Form 3 which itself generally transforms into anhydrate Form 2 |
| unstable | – | – | – | – | – | – | – | – | – | – | O=C(O)c1ccc2c(c1)CCCC(c1ccc(Cl)cc1Cl)=C2c1ccc(O[C@H]2CCN(CCCF)C2)cc1 [DCM solvate] | result of exposure to heat and/or moisture [1]: formation of the anhydrate Form 1; result of exposure to heat and/or N2 ([1]; heat and/or N2): formation of the anhydrate Form 4 |
| unstable | – | – | – | – | – | – | – | – | – | – | O=C(O)c1ccc2c(c1)CCCC(c1ccc(Cl)cc1Cl)=C2c1ccc(O[C@H]2CCN(CCCF)C2)cc1 [THF solvate] | result of exposure to heat and/or moisture [1]: formation of the anhydrate form 1 |
| physically unstable | – | – | – | – | – | – | – | – | – | – | O=C(O)c1ccc2c(c1)CCCC(c1ccc(Cl)cc1Cl)=C2c1ccc(O[C@H]2CCN(CCCF)C2)cc1 [acetone solvate] | result of exposure to ambient conditions or dry nitrogen [1]: converts to low crystalline materials |
| metastable | 0.00 | 0.20 | 0.54 | 0.99 | 1.54 | 2.09 | 2.57 | 2.99 | 3.36 | 3.76 | O=C(O)c1ccc2c(c1)CCCC(c1ccc(Cl)cc1Cl)=C2c1ccc(O[C@H]2CCN(CCCF)C2)cc1 [anhydrate crystalline Form 1, 6-(2,4-dichlorophenyl)-5-[4-[(3S)-1-(3-fluoropropyl)pyrrolidin-3-yl]oxyphenyl]-8,9-dihydro-7H-benzo[7]annulene-2-carboxylic acid] | Change in Mass (water uptake) [2]: 4.07%; weight gain determined by DVS ([2]; at 95% relative humidity): 4.07 weight % |
| stable | 0 | 0.01 | 0.02 | 0.02 | 0.03 | 0.03 | 0.04 | 0.05 | 0.05 | 0.06 | O=C(O)c1ccc2c(c1)CCCC(c1ccc(Cl)cc1Cl)=C2c1ccc(O[C@H]2CCN(CCCF)C2)cc1 [anhydrate crystalline Form 2, 6-(2,4-dichlorophenyl)-5-[4-[(3S)-1-(3-fluoropropyl)pyrrolidin-3-yl]oxyphenyl]-8,9-dihydro-7H-benzo[7]annulene-2-carboxylic acid] | hygroscopicity (in words) ([2]; 0 to 95% relative humidity, about 25° C., European pharmacopoeia wording): no hygroscopicity; Change in Mass (water uptake) [2]: 0.06%; conversion after exposure to moisture ([1]; exposure to moisture): does not convert to another crystalline form; effect of temperature variations on crystal structure ([1]; exposure to temperature variations): does not alter the crystal structure before its melting; stability under ambient conditions of temperature and pressure ([1]; room temperature and ambient pressure): thermodynamically more stable |
| metastable | 0.00 | 0.78 | 1.13 | 1.29 | 1.46 | 2.21 | 2.46 | 2.62 | 2.73 | 2.84 | O=C(O)c1ccc2c(c1)CCCC(c1ccc(Cl)cc1Cl)=C2c1ccc(O[C@H]2CCN(CCCF)C2)cc1 [anhydrate crystalline Form 3, 6-(2,4-dichlorophenyl)-5-[4-[(3S)-1-(3-fluoropropyl)pyrrolidin-3-yl]oxyphenyl]-8,9-dihydro-7H-benzo[7]annulene-2-carboxylic acid] | Change in Mass (water uptake) [2]: 2.92%; weight gain determined by DVS ([2]; at 95% relative humidity): 2.92 weight % |
| metastable | 0.00 | 0.07 | 0.21 | 0.34 | 0.43 | 0.51 | 0.58 | 0.64 | 0.71 | 0.75 | O=C(O)c1ccc2c(c1)CCCC(c1ccc(Cl)cc1Cl)=C2c1ccc(O[C@H]2CCN(CCCF)C2)cc1 [anhydrate crystalline Form 4, 6-(2,4-dichlorophenyl)-5-[4-[(3S)-1-(3-fluoropropyl)pyrrolidin-3-yl]oxyphenyl]-8,9-dihydro-7H-benzo[7]annulene-2-carboxylic acid] | weight gain determined by DVS ([2]; at 90% relative humidity): 0.75 weight % |
| physically unstable | – | – | – | – | – | – | – | – | – | – | O=C(O)c1ccc2c(c1)CCCC(c1ccc(Cl)cc1Cl)=C2c1ccc(O[C@H]2CCN(CCCF)C2)cc1 [butanol solvate] | result of exposure to ambient conditions or dry nitrogen [1]: converts to an amorphous form |
| – | – | – | – | – | – | – | – | – | – | – | O=C(O)c1ccc2c(c1)CCCC(c1ccc(Cl)cc1Cl)=C2c1ccc(O[C@H]2CCN(CCCF)C2)cc1 [compound of formula (1), 6-(2,4-dichlorophenyl)-5-[4-[(3S)-1-(3-fluoropropyl)pyrrolidin-3-yl]oxyphenyl]-8,9-dihydro-7H-benzo[7]annulene-2-carboxylic acid] | storage requirement for stability over time ([1]; amorphous form, industrial scale handling): needs storage under refrigerated conditions to maintain its stability over time |
| unstable | – | – | – | – | – | – | – | – | – | – | O=C(O)c1ccc2c(c1)CCCC(c1ccc(Cl)cc1Cl)=C2c1ccc(O[C@H]2CCN(CCCF)C2)cc1 [ethanol solvate] | result of exposure to heat and/or moisture [1]: formation of the anhydrate Form 1 |
